Laboratory results taken from patent publication US20080227764A1 (published 2008).

Tests used:
[1] = system: diabetic neuropathic rats; assay: Streptozotocin diabetic neuropathic pain model (Example 1): noxious electrical current, tail flick latency, paw pressure; format: in vivo, rat
Male Wistar rats = assay: Sedation: resting time in open field activity monitor; format: in vivo, rat
[2] = system: diabetic neuropathic male Wistar rats; assay: Paw pressure (Randall Selitto) anti-nociception in rats with diabetic neuropathy (Example 2); format: in vivo, rat
[3] = system: rats with experimental insulin-dependent diabetes mellitus; details: intravenous morphine; diabetic rats; cited from earlier work

CC(=O)OCC(=O)[C@H]1CC[C@H]2[C@@H]3CC[C@H]4C[C@H](O)CC[C@]4(C)[C@H]3C(=O)C[C@]12C [alphadolone acetate, 21-acetoxy-3α-hydroxy-5α-pregnane-11,20-dione]
anti-nociceptive action in diabetic neuropathic pain (ECT, TFL, paw pressure) ([1]; alphadolone acetate 6 mg/kg ip given alone): minimally responsive | resting times compared with saline controls (Male Wistar rats; alphadolone acetate 60 mg/kg intraperitoneally): decreased resting times | resting times compared with saline controls (Male Wistar rats; alphadolone acetate doses less than 100 mg/kg intraperitoneally, 30 minutes): did not increase resting times | anti-nociception to paw pressure ([2]; alphadolone acetate 1.0 mg/kg given alone): ineffective | reversal of the allodynia and hyperalgesia to paw pressure ([2]; alphadolone acetate 10 mg/kg intraperitoneally (maximum dose), given alone): 80% | anti-nociceptive effects, dose response ([2]; alphadolone acetate given alone intraperitoneally, FIG. 9): dose related anti-nociceptive effects | potency in rats with diabetic neuropathy compared with normal weight matched rats ([2]; alphadolone acetate given alone, the two dose response curves overlay each other): same potency

CN1CC[C@]23c4c5ccc(O)c4O[C@H]2[C@@H](O)C=C[C@H]3[C@H]1C5 [morphine]
doses inducing dose-dependent anti-nociceptive effect relative to normal rats [3]: twice as high

COc1ccc2c3c1O[C@H]1C(=O)CC[C@@]4(O)[C@@H](C2)N(C)CC[C@]314 [oxycodone, reference compound]
anti-nociceptive action in diabetic neuropathic pain (ECT, TFL, paw pressure) ([1]; oxycodone 250 μg/kg given alone): minimally responsive | resting times compared with saline controls (Male Wistar rats; oxycodone 0.25 and 0.125 mg/kg intraperitoneally): decreased resting times | resting times compared with saline controls (Male Wistar rats; oxycodone doses less than 1.0 mg/kg intraperitoneally, 30 minutes): did not increase resting times
